Measurements taken from patent US7595401B2, “Therapeutic compounds and their use in cancer” (Myriad Pharmaceuticals, Inc., priority 2006, dated 2009).

These molecules were tested on purified human Hsp90 (assay: Binding Assay: fluorescence polarization with BODIPY-labeled geldanamycin). Conditions: 5 μM compound, BODIPY-GM 10 nM, Hsp90 30 nM.
Procedure, shortened: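 Fluorescence polarization competition with BODIPY-geldanamycin (10 nM final) and human Hsp90 (30 nM final) in HEPES-KOH pH 7.3 buffer with molybdate, NP-40, DTT; 2% DMSO, overnight at room temperature. Read 485/530 nm; percent inhibition from mP normalized to DMSO controls, fluorescent-compound points excluded.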

Going from `CC(C)C(Cn1cnc(N)c2nc(Sc3cc4c(cc3Br)OCO4)nc1-2)c1ccccc1` (centres unmarked) [Example 127, 8-(6-bromo-benzo[1,3]dioxol-5-ylsulfanyl)-3-(3-methyl-2-phenyl-butyl)-3H-purin-6-ylamine] to `CC(C)(C)NS(=O)(=O)c1ccc(CCn2cnc(N)c3nc(Sc4cc5c(cc4Br)OCO5)nc2-3)cc1` [Example 274, 4-(2-{6-Amino-8-[(6-bromo-1,3-benzodioxol-5-yl)thio]-3H-purin-3-yl}ethyl) N-(tert-butyl)benzenesulfonamide], the “% Inhibition at 5 μM Compound Concentration” value (“% Inhibition” for short) falls from 51% to 0.0%.

Compared with `CC(C)(C)C(=O)N1CCCC(CCn2cnc(N)c3nc(Sc4cc5c(cc4Br)OCO5)nc2-3)C1` (centres unmarked) [Example 450, 8-[(6-Bromo-1,3-benzodioxol-5-yl)thio]-3-{2-[1-(2,2-dimethylpropanoyl)piperidin-3-yl]ethyl}-3H-purin-6-amine], `COc1ccc(OC)c(Sc2nc3c(N)ncn(CCc4ccccc4Br)c-3n2)c1` [Example 142, 3-[2-(2-bromo-phenyl)-ethyl]-8-(2,5-dimethoxy-phenylsulfanyl)-3H-purin-6-ylamine] is lower in “% Inhibition” value: 57% for the first, 0% for the second.

Compared with `COc1ccc(OC)c(Sc2nc3c(N)ncnc3n2CCc2ccc(C(=O)O)cc2)c1` [Example 81, 4-{2-[6-Amino-8-(2,5-dimethoxy-phenylsulfanyl)-purin-9-yl]-ethyl}-benzoic acid], `COc1ccc(OC)c(Sc2nc3c(N)ncn(CCc4ccccc4C(F)(F)F)c-3n2)c1` [Example 184, 8-(2,5-dimethoxy-phenylsulfanyl)-3-[2-(2-trifluoromethyl-phenyl)-ethyl]-3H-purin-6-ylamine] is lower in “% Inhibition” value: 23% for the first, 0% for the second.

Same assay, conditions: BODIPY-GM 10 nM, Hsp90 30 nM

Going from `C[C@H](N)C(=O)N1CCC(CCn2c(Sc3cc4c(cc3Br)OCO4)nc3c(N)ncnc32)CC1` [Example 742, 9-(2-{1-[(2S)-2-Aminopropanoyl]piperidin-4-yl}ethyl)-8-[(6-bromo-1,3-benzodioxol-5-yl)thio]-9H-purin-6-amine] to `CC(C)(C)OC(=O)N1CCCCC1CCCn1c(Sc2cc3c(cc2Br)OCO3)nc2c(N)ncnc21` (centres unmarked) [Example 638, tert-Butyl 2-(3-{6-amino-8-[(6-bromo-1,3-benzodioxol-5-yl)thio]-9 H-purin-9-yl}propyl)piperidine-1-carboxylate], the IC50 rises from 140 nM to over 25000 nM.

First: CCOC(=O)N1CCCCC1CCn1c(Sc2cc(OC)ccc2OC)nc2c(N)ncnc21 (centres unmarked) [Example 337, 2-{2-[6-Amino-8-(2,5-dimethoxy-phenylsulfanyl)-purin-9-yl]-ethyl}-piperidine-1-carboxylic acid ethyl ester]
Second: COc1ccc(OC)c(Sc2nc3c(N)ncnc3n2CCC2CCN(C(C)=O)CC2)c1 [Example 557, 9-[2-(1-Acetylpiperidin-4-yl)ethyl]-8-[(2,5-dimethoxyphenyl)thio]-9 H-purin-6-amine]
The IC50 of the first is higher: over 8000 nM for the first, 1500 nM for the second.

`Nc1ncn(CCc2ccccc2)c2nc(Sc3cc4c(cc3I)OCO4)nc1-2` [Example 34, 8-(6-iodo-benzo[1,3]dioxol-5-ylsulfanyl)-3-phenethyl-3H-purin-6-ylamine] and `COc1cc(Sc2nc3c(N)ncn(CCc4ccccc4)c-3n2)cc(OC)c1OC` [Example 46, 3-phenethyl-8-(3,4,5-trimethoxy-phenylsulfanyl)-3H-purin-6-ylamine] cannot be ordered by IC50: over 10000 nM for the first, over 10000 nM for the second.

First: COc1cc(Sc2nc3c(N)ncnc3n2CCCc2ccccc2)cc(OC)c1OC [Example 47, 9-(3-Phenyl-propyl)-8-(3,4,5-trimethoxy-phenylsulfanyl)-9H-purin-6-ylamine]
Second: COc1ccc(OC)c(Sc2nc3c(N)ncnc3n2CCc2c(Cl)cccc2Cl)c1 [Example 251, 9-[2-(2,6-Dichlorophenyl)ethyl]-8-[(2,5-dimethoxyphenyl)thio]-9H-purin-6-amine]
The IC50 of the first is higher: over 10000 nM for the first, 75 nM for the second.

Going from `Nc1ncnc2c1nc(Sc1cc3c(cc1Br)OCO3)n2CCC1(F)C(F)(F)C(F)(F)C(F)(F)C(F)(F)C1(F)F` [Example 243, 8-[(6-Bromo-1,3-benzodioxol-5-yl)thio]-9-[2-(undecafluorocyclohexyl)ethyl]-9H-purin-6-amine] to `CC(C)(C)OC(=O)NC(CCn1c(Sc2cc3c(cc2Br)OCO3)nc2c(N)ncnc21)C1CCSCC1` (centres unmarked) [Example 666, tert-Butyl[3-{6-amino-8-[(6-bromo-1,3-benzodioxol-5-yl)thio]-9H-purin-9-yl}-1-(tetrahydro-2H-thiopyran-4-yl)propyl]carbamate], the IC50 falls from over 1000 nM to 800 nM. The second is the more potent here.

First: COc1ccc(OC)c(Sc2nc3c(N)ncnc3n2CCN2C(=O)CCCC2=O)c1 [Example 485, 1-(2-{6-Amino-8-[(2,5-dimethoxyphenyl)thio]-9H-purin-9-yl}ethyl)piperidine-2,6-dione]
Second: COc1ccc(OC)c(Sc2nc3c(N)ncnc3n2CCC2CCN(C(=O)OC(C)(C)C)CC2)c1 [Example 342, tert-Butyl 4-(2-{6-amino-8-[(2,5-dimethoxyphenyl)thio]-9H-purin-9-yl}ethyl)piperidine-1-carboxylate]
The IC50 of the first is 19-fold lower: 1000 nM for the first, 19000 nM for the second.

`COc1ccc(OC)c(Sc2nc3c(N)ncnc3n2CCc2ccc(S(=O)(=O)NC(C)(C)C)cc2)c1` [Example 275, 4-(2-{6-Amino-8-[(2,5-dimethoxyphenyl)thio]-9H-purin-9-yl}ethyl)-N-(tert-butyl)benzenesulfonamide] and `COc1cc(Sc2nc3c(N)ncnc3n2CCC2CCN(C=O)CC2)c2ocnc2c1` [Example 534, 4-(2-{6-Amino-8-[(5-methoxy-1,3-benzoxazol-7-yl)thio]-9 H-purin-9-yl}ethyl)piperidine-1-carbaldehyde] cannot be ordered by IC50: over 3000 nM for the first, 5000 nM for the second.

First: Nc1ncnc2c1nc(Sc1cc3c(cc1Br)OCO3)n2CC(c1ccccc1)C1CCCC1 (centres unmarked) [Example 101, 8-(6-Bromo-benzo[1,3]dioxol-5-ylsulfanyl)-9-(2-cyclopentyl-2-phenyl-ethyl)-9H-purin-6-ylamine]
Second: Nc1ncnc2c1nc(Sc1ccc3c(c1)CCC3=O)n2CCC1CCN(C=O)CC1 [Example 555, 4-(2-{6-Amino-8-[(1-oxo-2,3-dihydro-1 H-inden-5-yl)thio]-9 H-purin-9-yl}ethyl)piperidine-1-carbaldehyde]
The IC50 of the first is higher: over 3000 nM for the first, 700 nM for the second.

What follows are molecules tested on Luciferase refolding (assay: Luciferase refolding assay). Conditions: compound fluorescent in FP binding assay.
Format: biochemical
Design: key: *Compound is active in Luciferase refolding assay

With `CC(C)NC(=O)NC(CCn1c(Sc2cc3c(cc2Br)OCO3)nc2c(N)ncnc21)C1CC1` (centres unmarked) [Example 678, N-(3-{6-Amino-8-[(6-bromo-1,3-benzodioxol-5-yl)thio]-9H-purin-9-yl}-1-cyclopropylpropyl)-N′-isopropylurea] the “active in Luciferase refolding assay (asterisk footnote)” value (shortened to “active in Luciferase refolding assay”) was “*Fluorescent”.
In the case of `COc1ccc(OC)c(Sc2nc3c(N)ncnc3n2CCC(NC(=O)OC(C)(C)C)C2CC2)c1` (centres unmarked) [Example 664, tert-Butyl(3-{6-amino-8-[(2,5-dimethoxyphenyl)thio]-9H-purin-9-yl}-1-cyclopropylpropyl)carbamate], the “active in Luciferase refolding assay” value is reported as “*Fluorescent”.
With `Nc1ncn(CCC2(F)C(F)(F)C(F)(F)C(F)(F)C(F)(F)C2(F)F)c2nc(Sc3cc4c(cc3Br)OCO4)nc1-2` [Example 377, 8-[(6-Bromo-1,3-benzodioxol-5-yl)thio]-3-[2-(undecafluorocyclohexyl)ethyl]-3H-purin-6-amine] the “active in Luciferase refolding assay” value was “*Fluorescent”.
For `CC(C)(C)OC(=O)N1CCOC(CCn2cnc(N)c3nc(Sc4cc5c(cc4Br)OCO5)nc2-3)C1` (centres unmarked) [Example 368, tert-Butyl 2-(2-{6-amino-8-[(6-bromo-1,3-benzodioxol-5-yl)thio]-3H-purin-3-yl}ethyl)morpholine-4-carboxylate], the “active in Luciferase refolding assay” value was “*Fluorescent”.
